Measured values from PubChem BioAssay AID248 (DTP/NCI, 2004).
Several values for one entry are separate records, joined by “and”; a condition that tells them apart may be missing. Identical values can stand only once. Inconclusive results and toxic doses are left out. No stated cut-off is given here; in the data, active means T/C of 150% or more; inactive means T/C below 125%.

Test system: L1210 leukemia ip in BDF1 mice, survival T/C
Test: NCI In Vivo Anticancer Drug Screen. Data for tumor model L1210 Leukemia (intraperitoneal) in B6D2F1 (BDF1) mice
Conditions: endpoint: mean survival time, higher = longer survival
Summary of the method: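 Survival endpoint. Drug-treated group vs vehicle group, expressed as T divided by C. Tumor passaged by transplantation.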

Measured: T/C

OC(CBr)C(O)C(O)C(O)CBr (stereo not drawn)
inactive: dose: 15.6 mg/kg/injection, schedule: Q03HX008 (ip), vehicle: carboxymethylcellulose (CMC) 90 % of control | dose: 15.6 mg/kg/injection, schedule: Q03HX024 (ip), vehicle: carboxymethylcellulose (CMC) 91 % of control | dose: 31.2 mg/kg/injection, schedule: Q#A X034 (ip), vehicle: carboxymethylcellulose (CMC) 99 % of control | dose: 31.25 mg/kg/injection, schedule: Q01DX Z (ip), vehicle: carboxymethylcellulose (CMC) 94 % of control | dose: 31.3 mg/kg/injection, schedule: Q03HX008 (ip), vehicle: carboxymethylcellulose (CMC) 96 % of control | dose: 31.3 mg/kg/injection, schedule: Q03HX024 (ip), vehicle: carboxymethylcellulose (CMC) 93 % of control | dose: 62.5 mg/kg/injection, schedule: Q01DX001 (ip), vehicle: carboxymethylcellulose (CMC) 101 % of control | dose: 62.5 mg/kg/injection, schedule: Q01DX009 (ip), vehicle: carboxymethylcellulose (CMC) 104 % of control | dose: 62.5 mg/kg/injection, schedule: Q01DX017 (ip), vehicle: carboxymethylcellulose (CMC) 98 % of control | dose: 62.5 mg/kg/injection, schedule: Q03HX008 (ip), vehicle: carboxymethylcellulose (CMC) 97 % of control and 98 % of control | dose: 62.5 mg/kg/injection, schedule: Q03HX024 (ip), vehicle: carboxymethylcellulose (CMC) 87 % of control | dose: 62.5 mg/kg/injection, schedule: Q#A X034 (ip), vehicle: carboxymethylcellulose (CMC) 95 % of control | dose: 63.0 mg/kg/injection, schedule: Q01DX Z (ip), vehicle: carboxymethylcellulose (CMC) 103 % of control and 94 % of control | dose: 71.0 mg/kg/injection, schedule: Q01DX009 (oral), vehicle: carboxymethylcellulose (CMC) 97 % of control | dose: 100.0 mg/kg/injection, schedule: Q01DX001 (ip), vehicle: saline 98 % of control | dose: 100.0 mg/kg/injection, schedule: Q01DX009 (ip), vehicle: other 103 % of control | dose: 106.0 mg/kg/injection, schedule: Q01DX009 (ip), vehicle: saline 100 % of control | dose: 107.0 mg/kg/injection, schedule: Q## X006 (oral), vehicle: carboxymethylcellulose (CMC) 94 % of control | dose: 120.0 mg/kg/injection, schedule: Q01DX001 (ip), vehicle: carboxymethylcellulose (CMC) 97 % of control | dose: 125.0 mg/kg/injection, schedule: Q01DX001 (ip), vehicle: carboxymethylcellulose (CMC) 95 % of control and 92 % of control | dose: 125.0 mg/kg/injection, schedule: Q01DX009 (ip), vehicle: carboxymethylcellulose (CMC) 104 % of control | dose: 125.0 mg/kg/injection, schedule: Q01DX015 (ip), vehicle: saline 102 % of control | dose: 125.0 mg/kg/injection, schedule: Q01DX Z (ip), vehicle: carboxymethylcellulose (CMC) 98 % of control and 92 % of control | dose: 125.0 mg/kg/injection, schedule: Q02DX005 (ip), vehicle: carboxymethylcellulose (CMC) 100 % of control | dose: 125.0 mg/kg/injection, schedule: Q02DX008 (ip), vehicle: carboxymethylcellulose (CMC) 95 % of control | dose: 125.0 mg/kg/injection, schedule: Q03HX008 (ip), vehicle: carboxymethylcellulose (CMC) 98 % of control | dose: 125.0 mg/kg/injection, schedule: Q03HX024 (ip), vehicle: carboxymethylcellulose (CMC) 105 % of control | dose: 125.0 mg/kg/injection, schedule: Q04DX003 (ip), vehicle: carboxymethylcellulose (CMC) 87 % of control | dose: 160.0 mg/kg/injection, schedule: Q01DX009 (ip), vehicle: saline 102 % of control | dose: 160.0 mg/kg/injection, schedule: Q## X006 (oral), vehicle: carboxymethylcellulose (CMC) 95 % of control | dose: 177.0 mg/kg/injection, schedule: Q01DX009 (ip), vehicle: acetone 113 % of control | dose: 200.0 mg/kg/injection, schedule: Q01DX001 (ip), vehicle: other 97 % of control | dose: 200.0 mg/kg/injection, schedule: Q01DX001 (ip), vehicle: saline 96 % of control | dose: 200.0 mg/kg/injection, schedule: Q01DX009 (ip), vehicle: other 105 % of control | dose: 240.0 mg/kg/injection, schedule: Q01DX009 (ip), vehicle: saline 104 % of control | dose: 240.0 mg/kg/injection, schedule: Q## X003 (oral), vehicle: carboxymethylcellulose (CMC) 96 % of control | dose: 250.0 mg/kg/injection, schedule: Q01DX001 (ip), vehicle: carboxymethylcellulose (CMC) 95 % of control and 104 % of control | dose: 250.0 mg/kg/injection, schedule: Q01DX009 (ip), vehicle: carboxymethylcellulose (CMC) 98 % of control | dose: 250.0 mg/kg/injection, schedule: Q01DX015 (ip), vehicle: saline 110 % of control | dose: 250.0 mg/kg/injection, schedule: Q01DX Z (ip), vehicle: carboxymethylcellulose (CMC) 93 % of control and 106 % of control | dose: 250.0 mg/kg/injection, schedule: Q02DX005 (ip), vehicle: carboxymethylcellulose (CMC) 95 % of control | dose: 250.0 mg/kg/injection, schedule: Q04DX003 (ip), vehicle: carboxymethylcellulose (CMC) 97 % of control | dose: 250.0 mg/kg/injection, schedule: Q#A X034 (ip), vehicle: carboxymethylcellulose (CMC) 98 % of control
